Assay results taken from patent US20260000079A1, “COMPOSITIONS AND METHODS FOR MODULATING IMMUNITY IN PLANTS” (BOYCE THOMPSON INSTITUTE FOR PLANT RESEARCH, INC., priority 2019, published 2026).

Columns and labels:
[1] = test system: defense-response genes in Arabidopsis leaves; experiment: qRT-PCR of defense-response genes in Arabidopsis leaves after root treatment; format: in vivo, Arabidopsis thaliana; conditions: leaves 24 hours after root treatment with 1 μM
Procedure: FIG. 4A provides a schematic of the experimental designs for assessing activation of defense pathways and resistance to nematodes and bacteria. […] Bacterial growth was assayed 3 days post inoculation. Data are averages±s.d. (n=17). […] Arabidopsis seedlings were treated with buffer or the indicated concentrations of ascr #18 for 48 hours before inoculation with approximately 300 freshly hatched M. incognita J2 larvae. The numbers of root galls of infected plants were counted 6 weeks post inoculation. Data are averages±s.d. (n≥15). […] Arabidopsis seedlings were treated with the indicated concentrations of ascr #18 for 48 hours before transfer into 12-well plates containing Pluronic® F-127 gel with ˜200 freshly hatched M. incognita J2 larvae. Larvae touching root tips (FIG. 4D) or the whole area of roots (FIG. 4E) were counted at 6 hours post seedling transfer. Data are average±s.d. (n=12). […] Transcript levels were determined by qRT-PCR and plotted as relative fold-change compared to mock treated plants. Data are averages±s.d (n≥6). *P≤0.05; **P≤0.005; ***P≤0.0005; two-tailed t-test.
For each replicate, total RNA from Arabidopsis leaves were isolated from a pool of one leaf from each of three plants. For the seedling RNA analyses, Arabidopsis roots were collected from 30-40 seedlings for each replicates. Total RNA was isolated using Qiagen RNeasy® Plant Mini Kit (Qiagen) according to the manufacturer's instructions. DNAse treatment was done using DNA-Free™ Kit (Ambion) following the manufacturer's instructions. […]
For quantitative real-time PCR (qRT-PCR), transcripts were amplified using SYBR® Premix Ex-Taq™ (Takara) from 2.5 μL of 5×-diluted cDNA in a total 20 μL reaction using 0.1 μL of 100 μM gene-specific primers. […] The relative fold change was calculated according to the 2-ΔΔCt method (Manosalva, et al. (2015) Nat. Commun. 6:7795; Floss, et al. (2013) Proc. Natl. Acad. Sci. 110: E5025-34). […]
Next, it was determined whether differences in activation of defense signaling in wildtype and acx1acx5 plants underlie the observed differences in resistance to nematodes. […]

[2] = test system: MAPK, jasmonic acid and salicylic acid signaling pathways; conditions: Manosalva, et al. (2015); cited from earlier work
[3] = test system: Pseudomonas syringae DC3000; experiment: Bacterial growth assay in ascr #18-pretreated Arabidopsis; format: in vivo, Pseudomonas syringae pv. tomato; conditions: 1 μM, 24 hours pretreatment; acx1acx5 and wildtype Arabidopsis
Procedure: FIG. 4A provides a schematic of the experimental designs for assessing activation of defense pathways and resistance to nematodes and bacteria. […] Bacterial growth was assayed 3 days post inoculation. Data are averages±s.d. (n=17). […] Arabidopsis seedlings were treated with buffer or the indicated concentrations of ascr #18 for 48 hours before inoculation with approximately 300 freshly hatched M. incognita J2 larvae. The numbers of root galls of infected plants were counted 6 weeks post inoculation. Data are averages±s.d. (n≥15). […] Larvae touching root tips (FIG. 4D) or the whole area of roots (FIG. 4E) were counted at 6 hours post seedling transfer. […] Transcript levels were determined by qRT-PCR and plotted as relative fold-change compared to mock treated plants. […]
Given the rapid conversion of ascr #18 into shorter-chained ascarosides via pβo, the inventors investigated whether metabolism of the pathogen-produced compound ascr #18 produced by plant pathogenic nematodes is required for the activation of plant defense responses and resistance to other non-nematode pathogens. […] To test whether ascaroside metabolism plays a role in ascr #18-mediated enhanced resistance to a bacterial pathogen, the effect of ascr #18 treatment on infection with Pseudomonas syringae DC3000 was evaluated in the acx1acx5 mutant and wildtype Arabidopsis.

[4] = test system: bacteria, viruses, fungi, oomycetes, and nematodes; conditions: Manosalva, et al. (2015); cited from earlier work
[5] = test system: entomopathogenic nematode species; conditions: Kaplan, et al. (2012); cited from earlier work

## CC1O[C@@H](O[C@@H](C)CCCCCCCCC(=O)O)C(O)C[C@H]1O (stereo in doubt) [ascr #18, (10R)-(3′R,5′R-dihydroxy-6′S-methyl-(2H)-tetrahydropyran-2-yloxy)-undecanoic acid]
[1]; acx1acx5 vs wildtype
  induction of MAPK-related FRK1: slightly weaker in the mutant
[1]; wildtype vs acx1acx5
  induction of jasmonic acid signaling genes (PDF1.2, AOS, LOX2): to similar extents
  induction of salicylic acid signaling genes (PR-1, PR-4): to similar extents
[2]
  activation of defense signaling pathways in monocots and dicots: activation of conserved defense signaling pathways
[3]
  protection against P. syringae infection (bacterial growth 3 days post inoculation): comparable levels of protection
[4]
  resistance of plants to pathogens: enhance resistance of monocot and dicot plants to a wide range of pathogens

## C[C@H](CCC(=O)O)O[C@@H]1O[C@@H](C)[C@H](O)C[C@H]1O [ascr #9]
[5]
  dispersal behavior: mediate dispersal behavior
